≈ marks a conversion by molar mass, not a printed value. Where “and” joins values, the source holds several entries; their conditions need not be identical. Identical values can stand only once.

Test [1] is described as follows: Antiplatelet activity against arachidonate-induced rabbit platelet assessed as inhibition of platelet aggregation at 100 ug/ml relative to control. Type of test: functional. To be noted: Oryctolagus cuniculus.
Test [2] in a line: Antiplatelet activity against collagen-induced rabbit platelet assessed as inhibition of platelet aggregation at 100 ug/ml relative to control. It is filed as functional. To be noted: Oryctolagus cuniculus.
Another test has as its system Cladosporium cucumerinum. Put plainly: Antifungal activity against Cladosporium cucumerinum assessed as inhibition of microbial growth by bioautographic TLC method. It is filed as functional.
The test system of test [3] is Candida albicans. Put plainly: Antifungal activity against Candida albicans assessed as inhibition of fungal growth by bioautographic TLC method. Type of test: functional.
In a further test the test system is Zymoseptoria tritici. Put plainly: Antifungal activity against Zymoseptoria tritici assessed as inhibition of microbial growth by microtiter plate based analysis. Type of test: functional, organism-based.
A further test has as its system Pyricularia oryzae. The experiment in a line: Antifungal activity against Pyricularia oryzae assessed as inhibition of microbial growth by microtiter plate based analysis. Type of test: functional, organism-based.
The subject of test [4] is Trichophyton mentagrophytes. The experiment in a line: Antifungal activity against Trichophyton mentagrophytes assessed as inhibition of microbial growth. It is filed as functional.
The test system of the next test is Bacillus subtilis. Put plainly: Antibacterial activity against Bacillus subtilis assessed as inhibition of bacterial growth. It is filed as functional.
In test [5] the test system is Candida albicans. The experiment in a line: Antifungal activity against Candida albicans assessed as inhibition of fungal growth by MTT assay. Type of test: functional.
A further test has as its system Streptococcus mutans. The experiment in a line: Antibacterial activity against Streptococcus mutans assessed as lethal dose. As to conditions: read-out: LD50 (the source's name). It is filed as functional.
The subject of the next test is ZR-75-1. The experiment in a line: Antiproliferative activity against human ZR-75-1 cells assessed as cell growth inhibition. Type of test: functional, cell-based.
The nature of test [6]: Antiproliferative activity against human Lu1 cells assessed as cell growth inhibition. It is filed as functional, cell-based.
In another test the test system is LNCaP. The experiment in a line: Antiproliferative activity against human LNCaP cells assessed as cell growth inhibition. It is filed as functional, cell-based.
For another test, the system named is KB. Put plainly: Antiproliferative activity against human KB cells assessed as cell growth inhibition. Type of test: functional, cell-based.
Test [7] in a line: Antiproliferative activity against human KBV cells assessed as cell growth inhibition. It is filed as functional, cell-based.
Test [8] concerns Trichostrongylus colubriformis. The experiment in a line: Anthelmintic activity against third stage larvae of Trichostrongylus colubriformis at 0.7 mg/ml by microscope based analysis relative to control. Type of test: functional.
In test [9] the test system is Trypanosoma brucei brucei. The experiment in a line: Antitrypanosomal activity against bloodstream Trypanosoma brucei brucei assessed as parasite growth inhibition measured after 72 hrs by alamar blue assay. Type of test: functional, organism-based. In general terms: Resazurin is reduced to fluorescent resorufin, in cell work by metabolically active cells.
The target of test [10] is T1, Polyunsaturated fatty acid 5-lipoxygenase (Homo sapiens) (UniProt P09917).
T1 sequence (whole entry): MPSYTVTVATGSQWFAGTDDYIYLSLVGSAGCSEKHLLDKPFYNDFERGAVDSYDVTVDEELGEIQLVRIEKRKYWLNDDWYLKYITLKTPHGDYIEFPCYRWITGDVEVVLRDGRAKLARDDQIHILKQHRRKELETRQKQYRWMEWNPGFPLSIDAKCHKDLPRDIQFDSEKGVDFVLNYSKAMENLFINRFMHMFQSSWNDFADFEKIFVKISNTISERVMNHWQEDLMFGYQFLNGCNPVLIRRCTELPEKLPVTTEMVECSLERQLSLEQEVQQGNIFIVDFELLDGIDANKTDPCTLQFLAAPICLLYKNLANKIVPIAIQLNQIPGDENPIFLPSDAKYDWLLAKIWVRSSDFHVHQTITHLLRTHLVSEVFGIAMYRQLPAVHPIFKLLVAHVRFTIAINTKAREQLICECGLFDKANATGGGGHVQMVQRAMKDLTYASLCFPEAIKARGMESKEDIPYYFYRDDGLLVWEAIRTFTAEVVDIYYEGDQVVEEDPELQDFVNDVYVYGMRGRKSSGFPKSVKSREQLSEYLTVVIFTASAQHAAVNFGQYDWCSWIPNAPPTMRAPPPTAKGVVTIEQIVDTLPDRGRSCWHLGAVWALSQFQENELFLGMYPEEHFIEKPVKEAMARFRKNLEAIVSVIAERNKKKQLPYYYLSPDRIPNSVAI
The experiment in a line: Inhibition of ALOX5 (unknown origin) assessed as reduction in calmodulin level.

A further test has as its target Cyclooxygenase (Homo sapiens, UniProt P35354+P23219). The experiment in a line: Inhibition of COX (unknown origin). It is filed as protein assay.
For test [11], the system named is Human immunodeficiency virus 1. Put plainly: Antiviral activity against HIV-1. Type of test: functional, organism-based.
For test [12], the target named is T1, Polyunsaturated fatty acid 5-lipoxygenase (Homo sapiens). Put plainly: Inhibition of ALOX5 (unknown origin) at 0.000001 M relative to control. As to conditions: dose 1 µM.
In a further test the target is DNA polymerase beta (Homo sapiens, UniProt P06746). The experiment in a line: Inhibition of DNA polymerase beta (unknown origin).
In test [13] the target is T2, Alpha glucosidase (Homo sapiens) (UniProt O43451+P10253+P14410+Q2M2H8). The experiment in a line: Inhibition of alpha glucosidase (unknown origin) at 1 mM relative to control. Type of test: protein assay.
For test [14], the target named is T2, Alpha glucosidase (Homo sapiens). The experiment in a line: Inhibition of alpha glucosidase (unknown origin) at 0.4 mM relative to control. It is filed as protein assay.
Test [15] relates to Candida albicans. Put plainly: Antifungal activity against Candida albican ATCC10231 assessed as inhibition of fungal growth by microdilution method. Type of test: functional.
Test [16] relates to Candida albicans. Put plainly: Antifungal activity against Candida albican ATCC10231 assessed as inhibition of fungal growth by measuring minimal inhibitory quantity by microdilution method. Type of test: functional. A general note: Broth dilution looks for growth in wells or tubes with falling amounts of substance.
A short description of test [17]: Inhibition of superoxide anion radical release in rabbit polymorphonuclear leucocytes. Type of test: functional, cell-based. As to conditions: Oryctolagus cuniculus, Polymorphonuclear neutrophil.
In test [18] the test system is Peritoneal macrophage cell. The experiment in a line: Inhibition of superoxide anion radical release in guinea pig peritoneal macrophages. As to conditions: Cavia porcellus. It is filed as functional, cell-based.
The subject of a further test is Botrytis cinerea. The experiment in a line: Antifungal activity against Botrytis cinerea assessed as inhibition of microbial growth by microtiter plate based analysis. Type of test: functional, organism-based.
The test system of the next test is P388. The experiment in a line: Antiproliferative activity against mouse P388 cells assessed as cell growth inhibition. Type of test: functional, cell-based.
Test [19] deals with Panel NCI-60 (60 carcinoma cell lines). Put plainly: Antiproliferative activity against human Panel NCI-60 (60 carcinoma cell lines) assessed as cell growth inhibition. It is filed as functional.
Test [20] deals with Trichostrongylus colubriformis. Put plainly: Anthelmintic activity against third stage larvae of Trichostrongylus colubriformis at 0.6 mg/ml by microscope based analysis relative to control. It is filed as functional.
Test [21] concerns Trichostrongylus colubriformis. Put plainly: Anthelmintic activity against third stage larvae of Trichostrongylus colubriformis by microscope based analysis. It is filed as functional, organism-based.

In the case of `C=C(C)[C@H]1CC=C2C(=O)O[C@H]3C=C(C)[C@H](OO)[C@@H]1[C@@H]23`, the inhibition (commonly the relative decrease from the control value, in per cent) at 100 µg/mL in test [1] was determined as 50%; in [2], 93%.
Regarding `C=C1CC[C@H]2C(=C)CC[C@H]3C(=C)C(=O)O[C@@H]3[C@@H]12` [DEHYDROCOSTUSLACTONE], the MIC with Cladosporium cucumerinum was 0.5 µg/mL; with Candida albicans [3], 5 µg/mL (≈ 21.7 µM).
As to `Oc1ccc2c(c1)CCc1ccc(O)c(c1)-c1cc(ccc1O)CCc1ccc-2c(O)c1` [ISOPLAGIOCHIN D], the IC50 (in general, the concentration that inhibits the measured activity by half) amounted to 23.5 µg/mL with Zymoseptoria tritici and 4 µg/mL in the test with Pyricularia oryzae.
Consider `Oc1cc2ccc1Oc1cccc(c1)CCc1ccc(O)c(c1)Oc1ccc(cc1)CC2`, for which the figures for the MIC (in test [4]; with Bacillus subtilis) were 1 µg/mL and 1.5 µg/mL (≈ 3.53 µM), respectively. Moreover, the MID in the test with Candida albicans [5] stood at 0.25 µg/mL.
Take `CC(C)=CCC[C@]1(C)CCC[C@]2(C)[C@@H](C=O)C(C=O)=CC[C@@H]12`: in the test on Streptococcus mutans, the LC50 was 8 µg/mL (≈ 26.4 µM). The IC50 with ZR-75-1 amounted to 5.7 µM; in test [6] it was 5.7 µM; in the test on LNCaP, 5.7 µM; in the test with KB, 3.2 µM; in test [7], 2700 nM.
The compound `COc1ccc(CCc2cccc(OC)c2)cc1` displayed an inhibition at 700 µg/mL in test [8] of 85%.
`C=C(C)[C@H]1Cc2c(CCc3ccccc3)cc(O)c(O)c2O1`: the IC50 came to 0.44 µg/mL (≈ 1.48 µM) in test [9] and 26.2 µM against Cyclooxygenase. Besides, in [10], the ID50 amounted to 2 µg/mL (≈ 6.75 µM).
As for `Oc1cc2cc(c1O)Oc1ccc(cc1)CCc1cccc(O)c1Oc1cccc(c1)CC2O` (centres undefined), the IC50 in test [11] amounted to 5.3 µg/mL (≈ 11.6 µM); at DNA polymerase beta, 14.4 µM. The inhibition in test [12] is 4%.
As for `Oc1ccc2cc1Oc1ccc(cc1)CCc1cccc(O)c1Oc1cccc(c1)CC2`, the values for the inhibition in test [13] and in [14] were 52.2% and 100%, respectively.
As to `Oc1ccc2c(c1)CCc1ccc(O)c(c1)Oc1ccc(cc1)CCc1cccc(c1)O2` [PTYCHANOL A], the MIC in the test with Candida albicans [15] came out at 16 µg/mL; in the test with Candida albicans [16], 0.25 µg.
For `C=C(C=O)[C@@H]1[C@@H]2[C@H](CC[C@@]3(CO3)[C@@H]1C=O)C2(C)C`, the values for the IC50 in test [17] and in [18] were 6 µg/mL (≈ 24.2 µM) and 40 µg/mL (≈ 161 µM), respectively.
`Oc1ccc2c(c1)CCc1ccc(O)c(c1)-c1cc(cc(Cl)c1O)/C=C(/Cl)c1ccc-2c(O)c1`: the results for the IC50 in the test with Zymoseptoria tritici, with Botrytis cinerea and with Pyricularia oryzae were 15.9 µg/mL, 7.6 µg/mL and 3.9 µg/mL, respectively.
Turning to `C=C1C(=O)[C@]23O[C@@H]2[C@H]1CCC(=O)[C@]1(C)CCCC(C)(C)[C@H]1C[C@H]3O`, the GI50 (as a rule, the concentration at which growth is held to half of that of the control) in the test on P388 was 0.27 µg/mL and 800 nM; in [19], 2500 nM. Moreover, in the test with P388, the IC50 stood at 0.27 µg/mL (≈ 0.812 µM).
`Oc1cc2cc(c1O)Oc1ccc(cc1)CCc1ccc(O)c(O)c1Oc1cccc(c1)CC2` [MARCHANTIN B]: the IC50 was 5.3 µg/mL (≈ 11.6 µM) in test [11], 3.2 µM in the test on KB, 14.4 µM against DNA polymerase beta and 55.9 µM against Cyclooxygenase. In addition, the MID in the test on Candida albicans [5] turned out to be 4 µg/mL.
With `Oc1ccc2c(c1)CCc1ccc(O)c(c1)-c1cc(cc(Cl)c1O)CCc1ccc-2c(O)c1`, the IC50 amounted to 4.5 µg/mL in the test on Zymoseptoria tritici, 18.9 µg/mL in the test with Botrytis cinerea and 2.6 µg/mL in the test with Pyricularia oryzae.
Compound `COc1cccc(CCc2ccc(O)cc2)c1` came in with an inhibition at 600 µg/mL in test [20] of 85%. This compound showed an IC50 in [21] of 130 µg/mL (≈ 569 µM).
